Assay results: US20240116985A1, “STAPLED PEPTIDES AND METHODS THEREOF” (priority 2020, published 2024)
Read-outs that look alike come from different tables or passages of the source.

Target: T1, full-length beta-Catenin (Uniprot ID P35222) (Homo sapiens, UniProt P35222)
T1 construct: 10 nM full-length beta-Catenin (Uniprot ID P35222)
T1 sequence (P35222 1-781): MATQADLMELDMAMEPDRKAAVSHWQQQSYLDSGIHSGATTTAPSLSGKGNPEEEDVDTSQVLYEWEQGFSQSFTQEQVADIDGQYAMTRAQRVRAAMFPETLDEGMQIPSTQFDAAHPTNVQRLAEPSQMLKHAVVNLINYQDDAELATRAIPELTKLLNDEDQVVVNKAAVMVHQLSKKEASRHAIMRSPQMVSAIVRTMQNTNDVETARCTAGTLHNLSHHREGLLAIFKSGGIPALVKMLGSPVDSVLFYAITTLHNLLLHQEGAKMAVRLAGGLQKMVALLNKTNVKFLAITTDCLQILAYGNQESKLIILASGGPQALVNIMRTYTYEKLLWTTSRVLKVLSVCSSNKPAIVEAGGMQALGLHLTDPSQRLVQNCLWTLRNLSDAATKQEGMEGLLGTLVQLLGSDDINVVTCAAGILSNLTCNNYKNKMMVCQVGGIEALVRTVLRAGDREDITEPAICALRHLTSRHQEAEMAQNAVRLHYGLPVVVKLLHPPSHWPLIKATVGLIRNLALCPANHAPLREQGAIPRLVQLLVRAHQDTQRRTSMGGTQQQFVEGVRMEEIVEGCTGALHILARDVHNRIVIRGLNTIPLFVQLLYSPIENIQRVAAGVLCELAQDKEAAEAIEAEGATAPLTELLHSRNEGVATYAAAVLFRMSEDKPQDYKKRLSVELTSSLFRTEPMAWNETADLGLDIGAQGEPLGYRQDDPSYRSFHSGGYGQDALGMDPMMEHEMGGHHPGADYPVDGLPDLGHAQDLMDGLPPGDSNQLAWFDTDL
Assay: Fluorescence polarization IC50 (beta-catenin / 5FAM-TCF4 10-53 competition)
Type: binding

[1] = fluorescence polarization; read-out: beta-Catenin FP IC50
[2] = read-out: beta-Catenin FP IC50; fluorescence polarization

SMILES	IC50 [1] [nM]	other results
CC(=O)N1CCC[C@]12CC=CCCCC1(CCCC=CCCCOC(=O)N3CC[C@@](C(=O)N[C@@H](Cc4ccsc4)C(=O)N[C@@H](Cc4csc5ccccc45)C(=O)N[C@@H](CCC(N)=O)C(N)=O)(C3)NC(=O)[C@H](CC(C)C)NC(=O)[C@H](Cc3ccccc3)NC(=O)[C@H](C)NC(=O)[C@H](C)NC(=O)[C@H](CC(=O)S)NC(=O)[C@H](CC(=O)O)NC1=O)NC(=O)[C@H](CC(C)(C)C)NC(=O)[C@H](CC(=O)O)NC2=O (stereo partly drawn) [I-1946, Ac-PL3-Asp-Npg-B5-Asp-AspSH-Ala-Ala-Phe-Leu-PyrS2-3Thi-BztA-Gln-NH2]	874	
CC(=O)N1CCC[C@]12CC=CCCCC1(CCCC=CCCCOC(=O)N3CC[C@@](C(=O)N[C@@H](Cc4ccsc4)C(=O)N[C@@H](Cc4csc5ccccc45)C(=O)N[C@@H](CCC(N)=O)C(N)=O)(C3)NC(=O)[C@H](CC(C)C)NC(=O)[C@H](Cc3ccccc3)NC(=O)[C@H](C)NC(=O)[C@H](C)NC(=O)[C@H](CC(=O)S)NC(=O)[C@H](CC(=O)O)NC1=O)NC(=O)[C@H](CC(C)(C)C)NC(=O)[C@H](CC(=O)O)NC2=O (stereo partly drawn) [I-1947, Ac-PL3-Asp-Npg-B5-Asp-AspSH-Ala-Ala-Phe-Leu-PyrS2-3Thi-BztA-Gln-NH2]	253	
CC(=O)N1CCC[C@]12CC=CCCCC1(CCCC=CCCCOC(=O)N3CC[C@@](C(=O)N[C@@H](Cc4ccsc4)C(=O)N[C@@H](Cc4csc5ccccc45)C(=O)N[C@@H](CCC(N)=O)C(N)=O)(C3)NC(=O)[C@H](CC(C)C)NC(=O)[C@H](Cc3ccccc3)NC(=O)[C@H](C)NC(=O)[C@H](C)NC(=O)[C@H](CCC(=O)S)NC(=O)[C@H](CC(=O)O)NC1=O)NC(=O)[C@H](CC(C)(C)C)NC(=O)[C@H](CC(=O)O)NC2=O (stereo partly drawn) [I-1948, Ac-PL3-Asp-Npg-B5-Asp-GluSH-Ala-Ala-Phe-Leu-PyrS2-3Thi-BztA-Gln-NH2]	1330	
CC(=O)N1CCC[C@]12CC=CCCCC1(CCCC=CCCCOC(=O)N3CC[C@@](C(=O)N[C@@H](Cc4ccsc4)C(=O)N[C@@H](Cc4csc5ccccc45)C(=O)N[C@@H](CCC(N)=O)C(N)=O)(C3)NC(=O)[C@H](CC(C)C)NC(=O)[C@H](Cc3ccccc3)NC(=O)[C@H](C)NC(=O)[C@H](C)NC(=O)[C@H](CC(=O)O)NC(=O)[C@H](CC(=O)OCCSSc3ccccn3)NC1=O)NC(=O)[C@H](CC(C)(C)C)NC(=O)[C@H](CC(=O)O)NC2=O (stereo partly drawn) [I-1950, Ac-PL3-Asp-Npg-B5-[EtSSpy]AspE-Asp-Ala-Ala-Phe-Leu-PyrS2-3Thi-BztA-Gln-NH2]	234	
CC(=O)N1CCC[C@]12CC=CCCCC1(CCCC=CCCCOC(=O)N3CC[C@@](C(=O)N[C@@H](Cc4ccsc4)C(=O)N[C@@H](Cc4csc5ccccc45)C(=O)N[C@@H](CCC(N)=O)C(N)=O)(C3)NC(=O)[C@H](CC(C)C)NC(=O)[C@H](Cc3ccccc3)NC(=O)[C@H](C)NC(=O)[C@H](C)NC(=O)[C@H](CC(=O)O)NC(=O)[C@H](CC(=O)OCCSSc3ccccc3)NC1=O)NC(=O)[C@H](CC(C)(C)C)NC(=O)[C@H](CC(=O)O)NC2=O (stereo partly drawn) [I-1955, Ac-PL3-Asp-Npg-B5-[EtSSPh]AspE-Asp-Ala-Ala-Phe-Leu-PyrS2-3Thi-BztA-Gln-NH2]		IC50 [2]: 1200 nM
CC(=O)N1CCC[C@]12CC=CCCCC1(CCCC=CCCCOC(=O)N3CC[C@@](C(=O)N[C@@H](Cc4ccsc4)C(=O)N[C@@H](Cc4csc5ccccc45)C(=O)N[C@@H](CCC(N)=O)C(N)=O)(C3)NC(=O)[C@H](CC(C)C)NC(=O)[C@H](Cc3ccccc3)NC(=O)[C@H](C)NC(=O)[C@H](C)NC(=O)[C@H](CC(=O)OCCSSc3ccccc3)NC(=O)[C@H](CC(=O)O)NC1=O)NC(=O)[C@H](CC(C)(C)C)NC(=O)[C@H](CC(=O)O)NC2=O (stereo partly drawn) [I-1956, Ac-PL3-Asp-Npg-B5-Asp-[EtSSPh]AspE-Ala-Ala-Phe-Leu-PyrS2-3Thi-BztA-Gln-NH2]		IC50 (beta-Catenin FP IC50 (nM), fluorescence polarization): 849 nM
CC(=O)N1CCC[C@]12CC=CCCCC1(CCCC=CCCCOC(=O)N3CC[C@@](C(=O)N[C@@H](Cc4ccsc4)C(=O)N[C@@H](Cc4csc5ccccc45)C(=O)N[C@@H](CCC(N)=O)C(N)=O)(C3)NC(=O)[C@H](CC(C)C)NC(=O)[C@H](Cc3ccccc3)NC(=O)[C@H](C)NC(=O)[C@H](C)NC(=O)[C@H](CCC(=O)OCCSSc3ccccc3)NC(=O)[C@H](CC(=O)O)NC1=O)NC(=O)[C@H](CC(C)(C)C)NC(=O)[C@H](CC(=O)O)NC2=O (stereo partly drawn) [I-1957, Ac-PL3-Asp-Npg-B5-Asp-[EtSSPh]GluE-Ala-Ala-Phe-Leu-PyrS2-3Thi-BztA-Gln-NH2]		IC50 [2]: 567 nM
CCSSCCOC(=O)C[C@@H]1NC(=O)C2(CCCC=CCCCOC(=O)N3CC[C@@](C(=O)N[C@@H](Cc4ccsc4)C(=O)N[C@@H](Cc4csc5ccccc45)C(=O)N[C@@H](CCC(N)=O)C(N)=O)(C3)NC(=O)[C@H](CC(C)C)NC(=O)[C@H](Cc3ccccc3)NC(=O)[C@H](C)NC(=O)[C@H](C)NC(=O)[C@H](CC(=O)O)NC1=O)CCCC=CC[C@]1(CCCN1C(C)=O)C(=O)N[C@@H](CC(=O)O)C(=O)N[C@@H](CC(C)(C)C)C(=O)N2 (stereo partly drawn) [I-1964, Ac-PL3-Asp-Npg-B5-[EtSSEt]AspE-Asp-Ala-Ala-Phe-Leu-PyrS2-3Thi-BztA-Gln-NH2]	738	
CC(=O)N1CCC[C@]12CC=CCCCC1(CCCC=CCCCOC(=O)N3CC[C@@](C(=O)N[C@@H](Cc4ccsc4)C(=O)N[C@@H](Cc4csc5ccccc45)C(=O)N[C@@H](CCC(N)=O)C(N)=O)(C3)NC(=O)[C@H](CC(C)C)NC(=O)[C@H](Cc3ccccc3)NC(=O)[C@H](C)NC(=O)[C@H](C)NC(=O)[C@H](CN3CCC[C@@H](C(=O)O)C3)NC(=O)[C@H](CC(=O)O)NC1=O)NC(=O)[C@H](CC(C)(C)C)NC(=O)[C@H](CC(=O)O)NC2=O (stereo partly drawn) [I-1967, Ac-PL3-Asp-Npg-B5-Asp-R3COOPipA-Ala-Ala-Phe-Leu-PyrS2-3Thi-BztA-Gln-NH2]	14	

More lines, main results first:

IC50 [1] [nM]	SMILES	other results
1630	CC(=O)N1CCC[C@]12CC=CCCCC1(CCCC=CCCCOC(=O)N3CC[C@@](C(=O)N[C@@H](Cc4ccsc4)C(=O)N[C@@H](Cc4csc5ccccc45)C(=O)N[C@@H](CCC(N)=O)C(N)=O)(C3)NC(=O)[C@H](CC(C)C)NC(=O)[C@H](Cc3ccccc3)NC(=O)[C@H](C)NC(=O)[C@H](C)NC(=O)[C@H](CC(=O)O)NC(=O)[C@H](CC(=O)S)NC1=O)NC(=O)[C@H](CC(C)(C)C)NC(=O)[C@H](CC(=O)O)NC2=O (stereo partly drawn) [I-1944, Ac-PL3-Asp-Npg-B5-AspSH-Asp-Ala-Ala-Phe-Leu-PyrS2-3Thi-BztA-Gln-NH2]	
918	CC(=O)N1CCC[C@]12CC=CCCCC1(CCCC=CCCCOC(=O)N3CC[C@@](C(=O)N[C@@H](Cc4ccsc4)C(=O)N[C@@H](Cc4csc5ccccc45)C(=O)N[C@@H](CCC(N)=O)C(N)=O)(C3)NC(=O)[C@H](CC(C)C)NC(=O)[C@H](Cc3ccccc3)NC(=O)[C@H](C)NC(=O)[C@H](C)NC(=O)[C@H](CC(=O)O)NC(=O)[C@H](CC(=O)S)NC1=O)NC(=O)[C@H](CC(C)(C)C)NC(=O)[C@H](CC(=O)O)NC2=O (stereo partly drawn) [I-1945, Ac-PL3-Asp-Npg-B5-AspSH-Asp-Ala-Ala-Phe-Leu-PyrS2-3Thi-BztA-Gln-NH2]	
544	CCCCCCSSCCOC(=O)C[C@@H]1NC(=O)[C@]2(CC=CCCCC3(CCCC=CCCCOC(=O)N4CC[C@@](C(=O)N[C@@H](Cc5ccsc5)C(=O)N[C@@H](Cc5csc6ccccc56)C(=O)N[C@@H](CCC(N)=O)C(N)=O)(C4)NC(=O)[C@H](CC(C)C)NC(=O)[C@H](Cc4ccccc4)NC(=O)[C@H](C)NC(=O)[C@H](C)NC(=O)[C@H](CC(=O)O)NC(=O)[C@H](CC(=O)O)NC3=O)NC(=O)[C@H](CC(C)(C)C)NC1=O)CCCN2C(C)=O (stereo partly drawn) [I-1960, Ac-PL3-[EtSSHex]AspE-Npg-B5-Asp-Asp-Ala-Ala-Phe-Leu-PyrS2-3Thi-BztA-Gln-NH2]	
566	CCSSCCOC(=O)CC[C@@H]1NC(=O)[C@H](CC(=O)O)NC(=O)C2(CCCC=CCCCOC(=O)N3CC[C@@](C(=O)N[C@@H](Cc4ccsc4)C(=O)N[C@@H](Cc4csc5ccccc45)C(=O)N[C@@H](CCC(N)=O)C(N)=O)(C3)NC(=O)[C@H](CC(C)C)NC(=O)[C@H](Cc3ccccc3)NC(=O)[C@H](C)NC(=O)[C@H](C)NC1=O)CCCC=CC[C@]1(CCCN1C(C)=O)C(=O)N[C@@H](CC(=O)O)C(=O)N[C@@H](CC(C)(C)C)C(=O)N2 (stereo partly drawn) [I-1966, Ac-PL3-Asp-Npg-B5-Asp-[EtSSEt]GluE-Ala-Ala-Phe-Leu-PyrS2-3Thi-BztA-Gln-NH2]	
29	CC(=O)N1CCC[C@]12CC=CCCCC1(CCCC=CCCCOC(=O)N3CC[C@@](C(=O)N[C@@H](Cc4ccsc4)C(=O)N[C@@H](Cc4csc5ccccc45)C(=O)N[C@@H](CCC(N)=O)C(N)=O)(C3)NC(=O)[C@H](CC(C)C)NC(=O)[C@H](Cc3ccccc3)NC(=O)[C@H](C)NC(=O)[C@H](C)NC(=O)[C@H](CN3CCCC[C@H]3C(=O)O)NC(=O)[C@H](CC(=O)O)NC1=O)NC(=O)[C@H](CC(C)(C)C)NC(=O)[C@H](CC(=O)O)NC2=O (stereo partly drawn) [I-1968, Ac-PL3-Asp-Npg-B5-Asp-S2COOPipA-Ala-Ala-Phe-Leu-PyrS2-3Thi-BztA-Gln-NH2]	
